In patent US20050004093A1, “Beta-lactamase inhibitor prodrug” (Pfizer Inc, priority 2003, published 2005):
Values after ≈ are worked out from the molar mass of the structure shown. Where two headings read alike, the source gives them in different places.

Key:
[1] = system: Streptococcus pneumoniae (02J1046); assay: Gerbil otitis media model; type: in vivo; conditions: single agent, oral, t.i.d. for 2 days, bacterial clearance day 4 post-challenge
[2] = system: Haemophilus influenzae (54A1218); assay: Gerbil otitis media model; type: in vivo; conditions: single agent, oral, t.i.d. for 2 days, bacterial clearance day 4 post-challenge
[3] = system: Moraxella catarrhalis (87A1115); assay: Murine systemic infection model; type: in vivo; conditions: single agent, oral, b.i.d. for 1 day, mice, survival day 4 post-challenge
[4] = system: Staphylococcus aureus (01A0400); assay: Murine systemic infection model; type: in vivo; conditions: single agent, oral, b.i.d. for 1 day, mice, survival day 4 post-challenge
[5] = system: Streptococcus pneumoniae (02J1095); assay: Murine systemic infection model; type: in vivo; conditions: single agent, oral, b.i.d. for 1 day, mice, survival day 4 post-challenge
[6] = system: Streptococcus pneumoniae (02J1095); assay: Murine pneumonia model; type: in vivo; conditions: single agent, oral, b.i.d. for 2 days, mice, survival day 10 post-challenge
[7] = system: clinical isolates of S. pneumoniae; assay: Susceptibility assay (NCCLS broth microdilution MIC), non-β-lactamase producing species; conditions: Streptococcus pneumoniae
[8] = in vitro
Description: (§1) The incubation consisted of 990 μl of plasma preincubated for 5 minutes at 37° C. in a 96-well heat block. The incubation was initiated with the addition of 10 gl of a 10 mM stock of compound in 100% methanol. Serial aliquots (100 μl) were removed and transferred to 200 μl of 75/25 acetonitrile/3% perchloric acid at 0, 1, 2, 5, 10, 20, 30, and 60 minutes. The samples were centrifuged, the supernatants transferred to injection vials, and 20 μl was injected onto the HPLC in-line with a LC/MS single quadropole mass spectrometer. The LC/MS system was run in the negative ion mode.

[9] = in vitro; remark: listed apart in the source
Description: as §1

[10] = in vitro; remark: listed apart in the source
Description: as §1

[11] = in vitro; remark: listed apart in the source
Description: as §1

[12] = in vitro; remark: listed apart in the source
Description: as §1

[13] = target: T1, BRO-2 β-lactamase, M. catarrhalis 87A1178 ATCC43617 (Moraxella catarrhalis, UniProt Q59514); assay: IC50 against β-lactamase in cell extract (colorimetric, chromogenic cephalosporin); type: biochemical; conditions: BRO-2, M. catarrhalis 87A1178 ATCC43617 cell extract
T1 sequence (Q59514 1-313 D293G): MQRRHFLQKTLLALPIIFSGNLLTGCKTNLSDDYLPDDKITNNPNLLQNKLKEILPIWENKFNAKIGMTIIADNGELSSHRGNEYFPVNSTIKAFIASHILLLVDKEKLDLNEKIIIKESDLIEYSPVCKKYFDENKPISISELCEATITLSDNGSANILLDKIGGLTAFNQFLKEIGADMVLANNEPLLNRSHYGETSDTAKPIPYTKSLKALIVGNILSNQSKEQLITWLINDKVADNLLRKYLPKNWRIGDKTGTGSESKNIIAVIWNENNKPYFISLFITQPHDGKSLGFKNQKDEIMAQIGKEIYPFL

[14] = target: T2, ROB-1 β-lactamase, H. influenzae ATCC43334 (Haemophilus influenzae, UniProt P67918); assay: biochemical
T2 sequence (P67918 34-305): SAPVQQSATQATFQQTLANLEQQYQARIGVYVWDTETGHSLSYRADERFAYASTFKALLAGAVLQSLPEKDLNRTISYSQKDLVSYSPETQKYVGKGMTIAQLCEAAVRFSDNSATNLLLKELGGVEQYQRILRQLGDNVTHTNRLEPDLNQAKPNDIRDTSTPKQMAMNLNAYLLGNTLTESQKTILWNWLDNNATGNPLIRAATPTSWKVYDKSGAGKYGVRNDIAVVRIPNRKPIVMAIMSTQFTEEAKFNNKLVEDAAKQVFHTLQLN

[15] = target: T3, BRO-1 β-lactamase, M. catarrhalis 87A1115 (Moraxella catarrhalis, UniProt Q59514); assay: biochemical
T3 sequence (Q59514 26-313): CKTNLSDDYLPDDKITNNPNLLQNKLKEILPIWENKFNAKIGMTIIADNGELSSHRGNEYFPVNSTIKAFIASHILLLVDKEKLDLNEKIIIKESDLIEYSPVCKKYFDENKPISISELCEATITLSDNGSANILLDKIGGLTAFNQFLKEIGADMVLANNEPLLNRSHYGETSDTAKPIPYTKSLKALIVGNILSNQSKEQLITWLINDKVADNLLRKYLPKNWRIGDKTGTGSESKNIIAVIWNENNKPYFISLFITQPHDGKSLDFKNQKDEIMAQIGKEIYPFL

[16] = target: T4, Sme-I β-lactamase, Serratia S6 (Serratia marcescens, UniProt P52682); assay: biochemical
T4 sequence (P52682 28-294): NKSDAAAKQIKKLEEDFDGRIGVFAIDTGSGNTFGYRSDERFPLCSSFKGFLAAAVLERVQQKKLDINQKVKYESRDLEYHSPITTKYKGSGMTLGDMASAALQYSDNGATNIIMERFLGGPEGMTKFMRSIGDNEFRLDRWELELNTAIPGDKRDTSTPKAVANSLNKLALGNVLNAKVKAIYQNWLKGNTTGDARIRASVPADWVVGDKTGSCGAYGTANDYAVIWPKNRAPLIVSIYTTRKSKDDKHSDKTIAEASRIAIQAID
Description: Biochemical activity against β-lactamases from other pathogens, including those associated with skin infections:

[17] = system: esterases; assay: Hydrolysis in the presence of esterases; type: in vitro ADME
Text: (§2) Based upon this correlation, the rat was used to predict human absorption. […] Thus, oral bioavailability assessments in rats should correlate well with the fraction absorbed in humans.

[18] = Hepatic extraction, rat hepatocytes; type: in vitro ADME
Text: as §2

[19] = Hepatic extraction, human hepatocytes; type: in vitro ADME
Text: as §2

[20] = administered orally, rodents, preclinical studies; cited from earlier work

SMILES	ED50 [3] [mg/kg]	ED50 [4] [mg/kg]	ED50 [5] [mg/kg]	ED50 [6] [mg/kg]	half-life at 100 μM ([8]; mouse, plasma) [h]	half-life at 100 μM ([9]; rat, plasma) [h]	half-life at 100 μM ([10]; dog, plasma) [h]	half-life at 100 μM ([12]; human, plasma) [h]	IC50 [13] [nM]	IC50 [14] [nM]	IC50 [15] [nM]	IC50 [16] [nM]	further results
CC1(C)S[C@@H]2[C@H](NC(=O)[C@H](N)c3ccc(O)cc3)C(=O)N2[C@H]1C(=O)O [Amoxicillin, amoxicillin]	> 200	> 200	< 100	< 100									ED50 [1]: > 50 mg/kg; ED50 [2]: > 50 mg/kg; MIC ([7]; read-out: Amoxicillin MICs, 12 penicillin-susceptible S. pneumoniae isolates): 0.0156 to 0.06 µg/mL (≈ 0.0427 to 0.164 µM); MIC ([7]; read-out: Amoxicillin MICs, 21 penicillin-intermediate S. pneumoniae): 0.03 to 1 µg/mL (≈ 0.0821 to 2.74 µM); MIC50 ([7]; read-out: amoxicillin MIC50): 2 µg/mL (≈ 5.47 µM); MIC90 ([7]; read-out: amoxicillin MIC90): 4 µg/mL (≈ 10.9 µM)
O=C(O)[C@H]1/C(=C/CO)O[C@@H]2CC(=O)N21 [Clavulanate, lithium clavulanate]					> 4	3.3	2.8	2.6	110	40	140	19600	half-life at 100 μM ([11]; monkey, plasma): 3.6 h
CC1(C)[C@H](C(=O)[O-])N2C(=O)[C@@H](CO)[C@H]2S1(=O)=O.[Na+] [Na-HMPAS, 4-Thia-1-azabicyclo [3,2,0]heptane-2-carboxylic acid, 6-(hydroxymethyl)-3,3-dimethyl-7-oxo-,4,4-dioxide, monosodium salt, (2S,5R,6R)]									320	10	143	680	half-life at 100 μM [8]: 3.9 h; half-life at 100 μM [9]: 3.4 h; half-life at 100 μM [10]: > 4 h; half-life at 100 μM [11]: > 4 h; half-life at 100 μM [12]: > 4 h
CC1(C)[C@H](C(=O)OCOC(=O)OC2CCOCC2)N2C(=O)[C@@H](CO)[C@H]2S1(=O)=O [Prodrug 1, 4-Thia-1-azabicyclo[3.2.0]heptane-2-carboxylic acid, 6-(hydroxymethyl)-3,3-dimethyl-7-oxo-,[[[(tetrahydro-2H-pyran-4-yl)oxy]carbonyl]oxy]methyl ester, 4,4-dioxide (2S,5R,6R)]	> 25	> 25	> 25	> 25	< 0.0333	< 0.0333	0.167	0.112					time to hydrolysis [17]: within a few minutes; melting point: 136 °C
CC1(C)C(C(=O)O)N2C(=O)C(CO)C2S1(=O)=O (stereo not drawn) [Prodrug 6-β-HMPAS, 6-β-hydroxymethylpenicillanic acid sulfone]													hepatic extraction [18]: minimal; hepatic extraction [19]: minimal; oral absorption [20]: very poorly absorbed
